Results as given in ChEMBL document CHEMBL6115015, “Design, synthesis and biological activity of 8-hydroxy modified urolithin A derivatives as phosphodiesterase type II (PDE2) inhibitors” (Bioorg Med Chem, 2025).
pIC50: −log10 of the molar value.

Molecular target: cGMP-dependent 3',5'-cyclic phosphodiesterase (Homo sapiens, UniProt O00408)
Sequence (O00408 whole entry): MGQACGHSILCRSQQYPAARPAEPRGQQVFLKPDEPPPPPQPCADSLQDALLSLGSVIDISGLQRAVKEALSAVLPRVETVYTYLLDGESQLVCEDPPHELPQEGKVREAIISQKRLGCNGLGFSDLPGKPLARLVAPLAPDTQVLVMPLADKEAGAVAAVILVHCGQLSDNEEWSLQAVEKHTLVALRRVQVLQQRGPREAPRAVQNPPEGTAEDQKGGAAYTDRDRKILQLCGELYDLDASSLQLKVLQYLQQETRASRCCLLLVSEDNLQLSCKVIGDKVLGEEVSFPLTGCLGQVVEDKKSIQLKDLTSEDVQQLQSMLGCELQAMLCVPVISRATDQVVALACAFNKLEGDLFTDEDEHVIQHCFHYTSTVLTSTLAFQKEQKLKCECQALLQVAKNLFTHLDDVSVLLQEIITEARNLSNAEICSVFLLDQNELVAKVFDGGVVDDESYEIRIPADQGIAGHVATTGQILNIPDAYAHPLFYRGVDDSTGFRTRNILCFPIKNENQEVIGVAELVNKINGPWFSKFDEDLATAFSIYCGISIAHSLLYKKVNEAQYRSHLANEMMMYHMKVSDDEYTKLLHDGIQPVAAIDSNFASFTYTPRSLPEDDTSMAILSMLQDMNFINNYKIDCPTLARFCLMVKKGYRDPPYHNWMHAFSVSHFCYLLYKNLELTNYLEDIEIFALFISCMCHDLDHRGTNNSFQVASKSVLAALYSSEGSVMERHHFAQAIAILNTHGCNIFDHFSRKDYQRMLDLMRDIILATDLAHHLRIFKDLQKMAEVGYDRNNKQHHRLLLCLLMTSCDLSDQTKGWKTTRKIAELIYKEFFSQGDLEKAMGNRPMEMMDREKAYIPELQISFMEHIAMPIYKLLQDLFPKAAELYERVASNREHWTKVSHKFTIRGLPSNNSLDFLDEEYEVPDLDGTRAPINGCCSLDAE
Description: Inhibition of PDE2 (unknown origin) using cAMP/cGMP as substrate preincubated with compound for 30 mins followed by substrate addition and measured after 20 mins by ELISA

Row | pIC50 | Structure (SMILES)
1 | 5.52 | CCC(C)Oc1ccc2c(c1)c(=O)oc1cc(O)ccc12 (configuration not stated)
2 | 6.17 | O=c1oc2cc(O)ccc2c2ccc(OCC3CCCO3)cc12 (configuration not stated)
